Results as given in the supplement of paper PMC10307832.

Assays:
Test in all cases: relative viability (nuclei count vs DMSO), 5 days (fraction); higher = more cells survive
Serdemetan + Phenformin = compound: c1ccc2c(CCNc3ccc(Nc4ccncc4)cc3)c[nH]c2c1 [Serdemetan] + N=C(N)NC(=N)NCCc1ccccc1 [Phenformin] (partner 250 µM)
In short: (§1)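 Relative viability divides the nuclei count in treated wells by that in vehicle wells. Lung cancer cell lines were seeded in 1536-well plates, dosed by pin tool the next day, and fixed and stained after 5 days in one step with final 0.05% Triton X-100, 1% formaldehyde and 1 ug/ml Hoechst. Dosing was a single drug or a fixed anchor-drug dose plus five library-drug doses (not always all listed) in √10 steps, and values are medians of duplicate plates imaged at 4×.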

Selisistat + Pictilisib = compound: C1CC(C2=C(C1)C3=C(N2)C=CC(=C3)Cl)C(=O)N [Selisistat] + CS(=O)(=O)N1CCN(Cc2cc3nc(-c4cccc5[nH]ncc45)nc(N4CCOCC4)c3s2)CC1 [Pictilisib] (partner 1 µM)
In short: as §1

Selisistat + AZD7762 = compound: C1CC(C2=C(C1)C3=C(N2)C=CC(=C3)Cl)C(=O)N [Selisistat] + NC(=O)Nc1cc(-c2cccc(F)c2)sc1C(=O)N[C@H]1CCCNC1 [AZD7762] (partner 0.2 µM)
In short: as §1

Selisistat + Trametinib = compound: C1CC(C2=C(C1)C3=C(N2)C=CC(=C3)Cl)C(=O)N [Selisistat] + CC(=O)Nc1cccc(-n2c(=O)n(C3CC3)c(=O)c3c(Nc4ccc(I)cc4F)n(C)c(=O)c(C)c32)c1 [Trametinib] (partner 0.02 µM)
In short: as §1

Cell Line	relative viability (Serdemetan + Phenformin; first compound 0.04 µM)	relative viability (Serdemetan + Phenformin; first compound 0.1265 µM)	relative viability (Serdemetan + Phenformin; first compound 0.4 µM)	relative viability (Serdemetan + Phenformin; first compound 1.265 µM)	relative viability (Serdemetan + Phenformin; first compound 4 µM)	relative viability (Selisistat + Pictilisib; first compound 0.4 µM)	relative viability (Selisistat + Pictilisib; first compound 1.265 µM)	relative viability (Selisistat + Pictilisib; first compound 4 µM)	relative viability (Selisistat + Pictilisib; first compound 12.65 µM)	relative viability (Selisistat + Pictilisib; first compound 40 µM)	relative viability (Selisistat + AZD7762; first compound 0.4 µM)	relative viability (Selisistat + AZD7762; first compound 1.265 µM)	relative viability (Selisistat + AZD7762; first compound 4 µM)	relative viability (Selisistat + AZD7762; first compound 12.65 µM)	relative viability (Selisistat + AZD7762; first compound 40 µM)	relative viability (Selisistat + Trametinib; first compound 0.4 µM)	relative viability (Selisistat + Trametinib; first compound 1.265 µM)	relative viability (Selisistat + Trametinib; first compound 4 µM)	relative viability (Selisistat + Trametinib; first compound 12.65 µM)	relative viability (Selisistat + Trametinib; first compound 40 µM)
LCLC-103H	0.336	0.352	0.343	0.349	0.322	0.662	0.629	0.464	0.508	0.666	0.807	0.744	0.853	0.751	0.749	0.682	0.731	0.75	0.651	0.711
NCI-H441	0.793	0.917	0.791	0.709	0.517	0.511	0.44	0.405	0.547	0.48	1.19	1.06	1.29	0.969	1.32	0.455	0.432	0.363	0.398	0.452
EPLC-272H	0.344	0.295	0.301	0.278	0.294	0.261	0.337	–	0.287	0.332	0.236	0.215	–	0.318	0.336	0.294	0.287	–	0.284	0.33
